Experimental data from PMC3928712 (ACS chemical biology, 2013).

Molecular target: 2009 pandemic H1N1 (pH1N1) PAN endonuclease (Influenza A virus, UniProt C3W5S0)
Conditions: for improvement in inhibitory activity compared to 2: relative to compound 2

SMILES | improvement in inhibitory activity compared to 2 [fold] | IC50 (enzymatic assay, PAN endonuclease) [µM]
O=c1[nH]c(-c2ccc(F)cc2)c(-c2ccc(F)cc2)cc1O [Compound 6] | 400 | –
O=c1[nH]c(-c2ccccc2)ccc1O [Compound 4] | 40 | –
O=c1[nH]cc(Br)cc1O [Compound 2] | – | 16
N#Cc1cccc(-c2c[nH]c(=O)c(O)c2)c1 [Compound 3] | 20 | –
